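Tested at 5 concentrations; 48 h exposure; 96-well plates; endpoints linearly interpolated, else capped at highest concentration. Here, GI50 denotes the concentration required for 50% inhibition of growth. At the TGI there is no net growth.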 Bounds are passed on as bounds.

Results on 16 molecules are retold here after PubChem BioAssay (NCI).

Among the test systems are M14 melanoma; HOP-62 NSCLC; HS 578T breast; MDA-MB-435; MDA-N; KM12 colon; NCI-H522 lung; OVCAR-3 ovarian; MDA-MB-231 breast.
Assay in all cases: growth of human tumour cells (NCI), 48 h

As for `S=C1SCN(Cc2ccco2)CN1c1ccc(Br)cc1`, the TGI in the assay on M14 melanoma was 29 µM; in the assay with HOP-62 NSCLC, 51.9 µM; with HS 578T breast, over 100 µM; with MDA-MB-435 it was 36 µM; in the assay on MDA-N, 94.8 µM; with KM12 colon, 31.7 µM. In addition, the results for the TGI in the assay with NCI-H522 lung and in the assay with OVCAR-3 ovarian were 23.7 µM and 21.1 µM, respectively.
With `CC(=O)Nc1ccc(OC2=CCN(C)CC2)cc1`, the TGI in the assay on M14 melanoma, with HOP-62 NSCLC, in the assay with HS 578T breast, with MDA-MB-435, in the assay with MDA-N and with KM12 colon was over 100 µM in each case. The TGI in the assay with MDA-MB-231 breast and in the assay on OVCAR-3 ovarian was over 100 µM in each case.
`CCOC(=O)c1nc2ccc(C(F)(F)F)cc2nc1Oc1cc(OC)cc(OC)c1`: the TGI is over 100 µM in the assay with M14 melanoma; over 100 µM with HOP-62 NSCLC; 64.2 µM in the assay on HS 578T breast; over 100 µM with MDA-MB-435; over 100 µM in the assay on MDA-N; over 100 µM in the assay on KM12 colon. Moreover, the TGI in the assay with MDA-MB-231 breast and in the assay on OVCAR-3 ovarian was over 100 µM in each case.
`CCN(C(=S)N[C@H](C(=O)N[C@@H](C)C(=O)OC)C(C)C)c1ccccc1`: the TGI in the assay with M14 melanoma, in the assay with HOP-62 NSCLC, with MDA-MB-435, in the assay on MDA-N, with KM12 colon and in the assay on MDA-MB-231 breast was over 100 µM in each case. The TGI with NCI-H522 lung and in the assay on OVCAR-3 ovarian was over 100 µM each time.
In the case of `CCOC(=O)c1cnc2oc3ccc(O)cc3c2c1-c1ccccc1`, the TGI was over 100 µM with M14 melanoma; over 100 µM in the assay with HS 578T breast; over 100 µM in the assay on MDA-MB-435; over 100 µM in the assay with MDA-N; over 100 µM in the assay with KM12 colon; 84.5 µM in the assay on MDA-MB-231 breast. In addition, in the assay with OVCAR-3 ovarian, the TGI is over 100 µM. In addition, in the assay on KM12 colon, the GI50 was 5.11 µM.
In the case of `O=C(OCCN=c1c2ccccc2ccc2ccccc12)c1ccc([N+](=O)[O-])cc1`, the TGI with M14 melanoma, in the assay with HOP-62 NSCLC, with HS 578T breast, with MDA-MB-435, in the assay on MDA-N and in the assay with KM12 colon was over 100 µM throughout. For the same molecule, the TGI in the assay with MDA-MB-231 breast and in the assay on OVCAR-3 ovarian was over 100 µM in each case.
As for `CCNC(=O)c1cc(/C=C/c2ccc([N+](=O)[O-])o2)nc2ccccc12`, the TGI is 14.5 µM in the assay with M14 melanoma; over 100 µM in the assay on HOP-62 NSCLC; over 100 µM with HS 578T breast; 12.6 µM in the assay with MDA-MB-435; over 100 µM in the assay on KM12 colon; over 100 µM in the assay with MDA-MB-231 breast. The TGI with NCI-H522 lung is over 49 µM; in the assay with OVCAR-3 ovarian, over 100 µM.
`CCOP(=O)(OCC)C1CC(n2cc(C)c(=O)[nH]c2=O)OC1CO` (stereo unspecified): the TGI with M14 melanoma, in the assay on HOP-62 NSCLC, in the assay on HS 578T breast, with MDA-N, in the assay on KM12 colon and in the assay with MDA-MB-231 breast was over 100 µM in each case. Also, the TGI in the assay with NCI-H522 lung and with OVCAR-3 ovarian was over 100 µM in each case.
Consider `COc1ccc(-c2cc(-c3cc4cc(Br)ccc4nc3Cl)c(C#N)c(N)n2)cc1`, for which the TGI in the assay on M14 melanoma, with HOP-62 NSCLC, in the assay on HS 578T breast, in the assay with MDA-MB-435, in the assay on MDA-N and with KM12 colon was over 12.5 µM throughout. The TGI in the assay with NCI-H522 lung and with OVCAR-3 ovarian was over 12.5 µM in each case.
For the molecule `O=C(Cn1c(C(=O)/C=C/c2cccs2)nc2ccccc21)c1ccc(Cl)cc1`, the TGI with M14 melanoma is 40.7 µM; in the assay with HOP-62 NSCLC, over 100 µM; in the assay on HS 578T breast, 38.7 µM; in the assay on MDA-MB-435, over 100 µM; in the assay on MDA-N, 56.7 µM; in the assay with KM12 colon, 46.6 µM. Further, the TGI in the assay with MDA-MB-231 breast was 46 µM; in the assay on OVCAR-3 ovarian, 57.3 µM.
Turning to `Cc1ccc2c(c1C)C(=O)/C(=C/c1ccccc1C(=O)O)C2`, the TGI in the assay on M14 melanoma, in the assay on HOP-62 NSCLC, in the assay with HS 578T breast, with MDA-MB-435, in the assay on MDA-N and in the assay on KM12 colon was over 100 µM throughout. Further, the TGI in the assay with NCI-H522 lung and with OVCAR-3 ovarian was over 100 µM each time.
As to `OC(CCNCc1ccccc1)c1ccc2ccccc2c1` (stereo unspecified), the TGI in the assay on M14 melanoma was over 100 µM; with HOP-62 NSCLC it was 33.5 µM; in the assay on HS 578T breast, 47.7 µM; in the assay on MDA-MB-435, 44.2 µM; in the assay on KM12 colon it was 31.7 µM; in the assay on MDA-MB-231 breast, 35.3 µM. Besides, the TGI in the assay with NCI-H522 lung stood at 35 µM; in the assay on OVCAR-3 ovarian, 29.5 µM.
As to `CC1(C)CC(=O)c2c(nc3ccc4ccccc4c3c2-c2ccc(NC(=O)CCCCCCCCC(=O)Nc3ccc(-c4c5c(nc6ccc7ccccc7c46)CC(C)(C)CC5=O)cc3)cc2)C1`, the TGI with M14 melanoma, in the assay with HOP-62 NSCLC, in the assay on HS 578T breast, in the assay with MDA-MB-435, with MDA-N and in the assay with KM12 colon was over 100 µM throughout. For the same molecule, the TGI in the assay with MDA-MB-231 breast and in the assay with OVCAR-3 ovarian was over 100 µM throughout.
As for `CN(C)c1nc2oc(-c3ccccc3)c(-c3ccccc3)c2c2nnnn12`, the TGI in the assay on M14 melanoma, with HS 578T breast, in the assay with MDA-MB-435, in the assay on KM12 colon, with MDA-MB-231 breast and with NCI-H522 lung was over 100 µM throughout.
In the case of `COc1ccc(NC(C)=O)cc1N1C(=O)/C(=C\c2cc(OC)c(OC)c(OC)c2)SC1c1ccccc1` (stereo unspecified), the TGI in the assay with M14 melanoma is over 100 µM; in the assay on HOP-62 NSCLC it was over 100 µM; in the assay with MDA-MB-435 it was over 100 µM; with MDA-N it was 72.3 µM; with KM12 colon, over 100 µM; with MDA-MB-231 breast it was over 100 µM. Also, the TGI in the assay with NCI-H522 lung and in the assay with OVCAR-3 ovarian was over 100 µM each time.
`COC(=O)[C@H]1CO[C@H]2C/C(C)=C/CC/C(C)=C/CC[C@@]3(C)O[C@@H]3C[C@H]21`: the TGI was over 50 µM in the assay on M14 melanoma; over 50 µM in the assay with HOP-62 NSCLC; 36.5 µM in the assay with HS 578T breast; 25.1 µM in the assay with MDA-MB-435; 18.4 µM with KM12 colon; 40.6 µM in the assay with MDA-MB-231 breast. Also, the figures for the TGI in the assay on NCI-H522 lung and in the assay with OVCAR-3 ovarian were 18.8 µM and 47.3 µM, respectively.
